Patent US6087401A, “Cyclopentenones, process for preparing the same, and the use thereof” (Takara Shuzo Co., Ltd., priority 1996, dated 2000)
≈ marks a conversion by molar mass, not a printed value. Where two headings read alike, the source gives them in different places.

What was measured:
IMC = experiment: life-prolonging effect, IMC; format: in vivo, female mice of CDF1 strain; conditions: intraperitoneal tumor
[1] = tested on: Aspergillus fumigatus TIMM 1776; experiment: antimicrobial activity to fungi; format: cell-based; conditions: high concentrations
HL-60 cells = experiment: apoptosis-inducing activity to HL-60 cells; format: cell-based, human; conditions: Homo sapiens
Description: (2) The cyclopentenone prepared in Example 2-(1) was used for preparing aqueous solutions of the cyclopentenone in the concentrations of 2.86 mM, 955 μM, 318 μM, 106 μM, 35 μM, 12 μM and […]. Then said heat-treated substance was adjusted to pH 7.0 with NaOH and the apoptosis-inducing activity to HL-60 cells was measured as follows.
To 1.35 ml of this suspension was added 0.15 ml of the above-mentioned cyclopentenone solution and the mixture was incubated at […] for 20 hours in the presence of 5% of carbon dioxide gas.

[2] = tested on: Campylobacter jejuni A3309; experiment: antibacterial action to Campylobacter; format: cell-based; conditions: 37° C., 48 hours, read-out: concentration at which no growth of the microorganism was noted
Description: (2) Campylobacter jejuni A3309 (stored at the Institute of Hygienic Sciences) was inoculated to a brain heart infusion medium (manufactured by Difco) containing 2% of calf serum (manufactured by Dainippon Seiyaku) and subjected to a shake preincubation at 37° C. for 16 hours. The culture (50 μl) was spread on 20 ml of 0.5% NaCl-containing Muller-Hinton plate medium (manufactured by BBL) containing 800, 400, 200, 100, 50, 25, 12.5, 6.25, 3.13 or 1.56 μg/ml of cyclopentenone and subjected to a stationary incubation at 37° C. for 48 hours.

Meth A cells = experiment: anticancer action to solid cancer, Meth A; format: in vivo, female BALB/c mice; conditions: 5 mg/kg/day s.c., five days
Description: The cyclopentenone mentioned in Example 3-(1) was diluted with a physiological saline solution to certain concentrations and the following tests were conducted.

[3] = tested on: Lactobacillus rhamnosus (IFO 3532); experiment: antibacterial activity to hiochi lactobacteria, microorganism D; format: cell-based; conditions: five days; for Growth Turbidity (OD600): control 0.35
Description: (§1) The testing microorganism was subjected to a stationary incubation for five days in an SI medium (Japan Brewery Association) containing 10% of ethanol to give a seed microorganism. The seed microorganism (0.1%) was added to 100 ml of 10% ethanol-containing SI medium to which the cyclopentenone was added in an amount of 0, 25, 50, 75 or 100 μg/ml (in terms of final concentration), then a stationary incubation was conducted for five days and the turbidity was measured. In measuring the turbidity, the value of OD600 was measured using an absorbance meter. A value of OD600 of the medium to which no testing microorganism was inoculated was deducted from the above value and this (growth turbidity) was used for the growth of the tested microorganism.
(§2) The tested microorganisms were as follows. Thus, Lactobacillus fructivorans (IFO 13118) (testing microorganism A), Lactobacillus fructivorans (JCM 1198) (testing microorganism B) and Lactobacillus homohiochii (IFO 13120) (testing microorganism C) as true hiochi bacteria while Lactobacillus rhamnosus (IFO 3532) (testing microorganism D) was used as hiochi lactobacteria.

[4] = tested on: Legionella pneumophila (isolated from bathtub water of hot spring); format: cell-based; conditions: 12 ppm, common logarithm
[5] = tested on: Saccharomyces cerevisiae ATCC 9763; experiment: antimicrobial activity to fungi; format: cell-based; conditions: high concentrations
[6] = tested on: Escherichia coli HB101 (ATCC 33694); experiment: growth turbidity, microorganism (13); format: cell-based; conditions: 8 h, control 222
Description: (§3) They were testing microorganism (13): Escherichia coli HB101 (ATCC 33694); testing microorganism (14): Salmonella typhimurium LT-2 (ATCC 27106); testing microorganism (15): Pseudomonas aeruginosa (IFO 3080); testing microorganism (16): Staphylococcus aureus 3A (NCTC 8319); testing microorganism (17): Bacillus subtilis (IFO 3034); and testing microorganism (18): Streptococcus mutans (GS5; stored at National Institute of Health).
(§4) The testing microorganisms were subjected to a seed culture overnight in an L-broth (1% tryptone, 0.5% yeast extract and […]; pH 7.0). The seed culture (5 μl) was inoculated to a medium to which 25-200 μg/ml of cyclopentenone was added to 5 ml of L-both and also to a medium to which nothing was added and a shake incubation was conducted at 37° C. to measure the growth. At the initiation of the incubation and also at eight hours thereafter, turbidity of the culture was measured using a Fuji Digital Turbidimeter (sold from Fuji Kogyo KK; manufactured by Akiyama Denki Seisakusho) under the condition that the adjusted scale was 82.3 and the growth of the tested microorganism was measured from the value (growth turbidity) obtained by deducting the turbidity at the initiation of incubation from that after eight hours. Incidentally, in the case of the testing microorganism (18), a brain heart infusion was used instead of L-broth.

mice = conditions: oral, 100 mg/kg
[7] = tested on: Streptococcus mutans (GS5); experiment: growth turbidity, microorganism (18); format: cell-based; conditions: 8 h, control 140
Description: as §3, §4

[8] = tested on: Pseudomonas aeruginosa (IFO 3080); experiment: growth turbidity, microorganism (15); format: cell-based; conditions: 8 h, control 239
Description: as §3, §4

[9] = tested on: Lactobacillus fructivorans (IFO 13118); experiment: antibacterial activity to hiochi bacteria, microorganism A; format: cell-based; conditions: five days; for Growth Turbidity (OD600): control 0.96
Description: as §1, §2

[10] = tested on: Candida albicans TIMM 0136; experiment: antimicrobial activity to fungi; format: cell-based; conditions: high concentrations
[11] = tested on: cancer cells such as HL-60, MOLT-3, A-549, WI-38VA13, Hep G2, HCT 116, SW 480, WiDr, AGS and myeloma cells; experiment: cell growth suppressing, anticancer and apoptosis-inducing action to cancer cells; format: cell-based, human
Sarcoma-180 = experiment: life-prolonging effect, intraperitoneal Sarcoma-180; format: in vivo, female mice of ICR strain; conditions: intraperitoneal tumor

O=C1C=CC(O)C1O (stereo not shown) [the cyclopentenone, 4,5-dihydroxy-2-cyclopenten-1-one]
increase in life span (IMC): 188% | mean survival days (IMC; control 10.8 days): 20.3 days | antimicrobial activity [1]: antimicrobial activity at high concentrations | minimal effective concentration (HL-60 cells; HL-60, 20 h, read-out: final concentration at which viable cell numbers and cell viability decreased): ≥ 10.6 µM | minimal effective concentration (HL-60 cells; HL-60, 20 hours, 35 μM solution added, read-out: final concentration at which apoptosis was induced (DNA molecular weight became small, cell shape changed)): 3.5 µM | MIC [2]: ≥ 12.5 µg/mL | Inhibiting Rate (Meth A cells): 100.0% | Tumor Weight (average ± SD) (Meth A cells; two weeks, n=8, control 1.41 ± 0.55): 0.00 ± 0.00 g | Growth Turbidity (OD600) ([3]; 25 μg/ml): 0.04 | Growth Turbidity (OD600) ([3]; 50 μg/ml): 0.01 | Growth Turbidity (OD600) ([3]; 75 μg/ml): 0 | MIC ([3]; Lacticaseibacillus rhamnosus, IFO3532, 120 h, read-out: concentration completely inhibiting growth): 75 µg/mL (≈ 657 µM) | Numbers of Tested Microorganism Cells after Incubation ([4]; 16 h, 0 ppm 7.4): 6.1 log10 CFU/mL | Numbers of Tested Microorganism Cells after Incubation ([4]; 96 h, 0 ppm 8.6): 8.6 log10 CFU/mL | antimicrobial activity [5]: antimicrobial activity at high concentrations | Growth Turbidity ([6]; 25 μg/ml): 0 | Growth Turbidity ([6]; 50 μg/ml): 0 | Growth Turbidity ([6]; 100 μg/ml): 0 | Growth Turbidity ([6]; 200 μg/ml): 0 | toxicity (mice): not show toxicity | Growth Turbidity ([7]; 25 μg/ml): 133 | Growth Turbidity ([7]; 50 μg/ml): 130 | Growth Turbidity ([7]; 100 μg/ml): 34 | Growth Turbidity ([7]; 200 μg/ml): 6 | Growth Turbidity ([8]; 25 μg/ml): 2 | Growth Turbidity ([8]; 50 μg/ml): 0 | Growth Turbidity ([8]; 100 μg/ml): 0 | Growth Turbidity ([8]; 200 μg/ml): 0 | Growth Turbidity (OD600) ([9]; 25 μg/ml): 0.17 | Growth Turbidity (OD600) ([9]; 50 μg/ml): 0.02 | Growth Turbidity (OD600) ([9]; 75 μg/ml): 0 | MIC ([9]; Fructilactobacillus fructivorans, IFO13118, 120 h, read-out: concentration completely inhibiting growth): 75 µg/mL (≈ 657 µM) | antimicrobial activity [10]: antimicrobial activity at high concentrations | apoptosis-inducing action to cancer cells [11]: apoptosis-inducing action | cell growth suppressing action and anticancer action [11]: cell growth suppressing action and anticancer action | increase in life span (Sarcoma-180): 148% | mean survival days (Sarcoma-180; control 22.6 days): 33.4 days
